Assay results reported in patent publication US6406856B1, “Biosensor” (Aberdeen University, priority 1998, dated 2002).

Key:
[1] = system: S. cerevisiae pPLUCΔP biosensor; test: S. cerevisiae pPLUCΔP biosensor luminescence toxicity assay; details: for detection of toxic substance by change in luminescence: 10 min exposure, toxicant at pH 5.5, FIGS. 5 and 6
Method: In vivo luciferase activity assays using S. cerevisiae require acidification to allow the substrate for the light reaction (luciferin) to freely enter intact cells. Therefore, a two-step assay procedure was designed to incorporate separate toxicity analysis without pH adjustment and subsequent acidification for luminescence quantification. In preparation for the assay, S. cerevisiae cells were harvested at peak luminescence (around 3 to 4×10^8 cells/ml), centrifuged at 700 g (3000 rpm) and washed twice in 5 mM KCl; keeping the original volume constant for the first wash, but halved for second wash (allowing for modified dilution in assay). The first step (exposure), 50 μl of washed S. cerevisiae cells are added to a 450 μl sample (pH generally not important). In an alternative procedure the S. cerevisiae can also be resuspended in water rather than in 5 mM Kcl. The second step (acificiation), 500 μl citrate phosphate buffer (pH2.5), also containing the luciferan (0.1 mM final concentration in 1 ml sample), are added to make up 1 ml total volume for subsequent luminescence quantification. The exposure time is generally 10 minutes, but this can be lengthened or shortened depending on assay requirements (e.g. FIGS. 10a, 10b and 11). The assay allows for the full pH durability of S. cerevisiae to be exploited as prior pH adjustment of samples is not required. Luminescence of the sample containing cuvettes are compared to a blank containing diluent(s) used in the assay. This blank defines 100% luminescence.
Dilutions were then made of the stock solutions using deionised water adjusted to pH5.5, as above. The cells were harvested at peak luminescence, centrifuged at 700 g and washed twice in 5 M KCl; keeping the original volume constant. The toxicant (450 μl) was added to each cuvette. The final volume was then made up to 500 μl using 3 to 4×10^7 cells. After 10 min, 500 μl of citrate phosphate buffer (pH 2.5) containing 5 μl of 20 mM luciferin was added to each cuvette and the bioluminescence was monitored.

[2] = system: dividing LucΔ S. cerevisiae strain cells; test: Dividing cell assay, luciferase activity, 96-well plates; format: cell-based, Saccharomyces cerevisiae; details: dilutions in 4.5% ethanol, 1x SC (-ura), exposure 3, 5, 7, 9 h
Method: (§1) The following procedure was designed to monitor the effect of increasing the exposure time up to 9 hours and to determine the different responses of dividing and non-dividing biosensor cells to the presence of DNA-damaging agents. For assay preparation, the diluent used was ethanol at 4.5% final concentration. All ethidium bromide dilution standards were prepared in glassware. […] The black 96-well plates were covered with a plate sealer and incubated at 30° C. before and between readings. […] Additional of 100 μl citrate phosphate buffer (pH 2.5), containing 0.2 mM luciferin, was performed at each time point before luminescence quantification in a Lucy Anthos 1 luminometer using the Stingray (v2.0b31) software package. Following luminescence quantification 100 μl was removed from the blank well in the dividing assays for OD600 measurements and cell counts. […]
Thus in FIG. 13, the effect of ethidium bromide on dividing cells was measured by recording luciferase activity from cells in wells containing ethidium bromide dilutions prepared in 4.5% ethanol. […]

[3] = system: non-dividing LucΔ S. cerevisiae strain cells; test: Non-dividing cell assay, light output, 96-well plates; format: cell-based, Saccharomyces cerevisiae; details: dilutions in 4.5% ethanol, cells in ddH2O, exposure 3, 5, 7, 9 h
Method: as §1
In FIG. 14, the effect of ethidium bromide on non-dividing cells was measured by recording the light output from cells in wells containing ethidium bromide dilutions prepared in 4.5% ethanol. […]

| Compound | detection of toxic substance by change in luminescence [1] | detection of copper after 48 hours growth of the biosensor ([1]; 10 min copper exposure, sensor cells used after 48 hours, FIG. 11) | effect on dividing cells (luciferase activity) [2] | effect on non-dividing cells (light output) [3] |
| --- | --- | --- | --- | --- |
| Oc1cc(Cl)cc(Cl)c1 [3,5-dichlorophenol] | can detect | – | – | – |
| [Cu] [copper] | can detect | still actively detecting | – | – |
| CC[n+]1c(-c2ccccc2)c2cc(N)ccc2c2ccc(N)cc21 [ethidium bromide] | – | – | clear decrease in cell division | no clear toxic effect |
